The target of series [1] is mouse PD-L1 Fc (R&D Systems) (mouse) (UniProt Q9EP73). The series can be described thus: PD-1/PD-L1 competitive ELISA: antibody preincubated with mouse PD-L1 Fc, then loaded on plate-coated mouse PD-1 Fc; % inhibition. On the technique in general: ELISA stands for enzyme-linked immunosorbent assay.
Series [2] deals with T cell response (BMDC co-cultured with allogenic CD4+ T cells). Nature of the series: Mouse mixed lymphocyte reaction (MLR) assay. It is filed as cell-based. As to conditions: ELISA of supernatant after 3 days of culture, in comparison to isotype control or SQTGly Fc. The protocol: A mouse mixed lymphocyte reaction (MLR) assay was performed to assess the ability of AVA04-182 Fc to modulate the T cell response. In this MLR assay, BMDC (bone marrow dendritic cells) were generated from the bone marrow of one (1) C57BL/6 mouse, cultured for seven (7) days in the presence of GM-CSF. Cells were then co-cultured with allogenic CD4+ T cells isolated from the spleen of a Balb/c mouse using negative selection. The MLR assay was performed in the presence or absence of the test products (AVA04-182 Fc, SQTgly Fc [SEQ ID NO: 120; Affimer Fc fusion without PD-L1 targeting], Avelumab and its isotype control, HuIgG1) and controls (anti-mouse PD-L1 clone 10F9.G2 and its isotype control, rat IgG2b). Test products were evaluated at three concentrations (700, 70 and 7 nM) and the controls at one concentration (70 nM). After 3 days of culture, cell culture supernatant was harvested and the secretion of interferon γ (IFNγ) and interleukin-2 (IL-2) was evaluated using ELISA. The anti-mouse PD-L1 and Avelumab induced an increase in IL-2 (data not shown) and IFNγ secretion, in comparison to their isotype controls (FIG. 4). Similarly, AVA04-182 Fc treatment led to an increase in IL-2 (data not shown) and IFNγ secretion at all concentrations tested, in comparison to SQTGly Fc (FIG. 4).

For a further series, the system named is MV4-11 AML cells. Nature of the series: MV4-11 AML model in NOD-SCID Il2rg-/- mice. Format: in vivo, mouse. Conditions: intraperitoneal once a day, 5 days on, 2 days off. The source says: One million MV4-11 cells injected into the tail vein of 10-week-old female NOD-SCID Il2rg−/−mice.
Series [3] relates to humanized PD-L1 MC38 tumour cell line. The series can be described thus: Humanised PD-L1 MC38 syngeneic model of colorectal cancer. It is filed as in vivo. Conditions: VbP 0.02 mg/mouse per os added to AVA04-251 Fc, compared to the monotherapy. The protocol:
Mice (n=8/group, C57BL/6) were inoculated subcutaneously in the right flank region with a humanized PD-L1 MC38 tumour cell line (in which the mouse PD-L1 extracellular domain was replaced by the equivalent human domain; CrownBio Inc). AVA04-251 Fc and associated control (SQTgly Fc) were injected via the IP route once tumours were >80 mm^3. Treatments were administered twice a week for 3 weeks at a dose of 10 mg/kg (AVA04-251 Fc and its control, SQTgly Fc). VbP (Tufts University) was administered 5 times a week (with 2 days off) at 0.02 mg/mouse per os. Overall, tumour growth inhibition was shown for both treatments (FIG. 17).
Seventy (70) days after the inoculation of the tumour, three (3) mice from the group treated with AVA04-251 Fc and VbP were inoculated a second time with the huMC38 cell line (a control group was inoculated at the same time) to assess if the immune system developed a memory response, preventing subsequent tumor growth.

For a further series, the system named is AML cell lines. Nature of the series: Pyroptosis in AML cell lines in vitro. Format: cell-based.
The subject of the next series is J774A.1 cells. Nature of the series: Pyroptosis (LDH release) in J774 mouse macrophage cell line. It is filed as cell-based. Conditions: 1 μM, 24 hours. The protocol: Affimer-linker-VbP pro-drugs are designed to be cleaved by FAPα to release VbP.
J774A.1 cells (mouse monocyte macrophages; ATCC) were grown in DMEM-10%-FBS in 75 cm^2 tissue culture flasks, harvested by scraping in PBS, resuspended in DMEM-1%-FBS, plated in 96-well plates (VWR) at a density of 5×10^3 cells per well, and placed in a 5% C02 incubator at 37° C. After incubation for 24 hours, serial 10-fold dilutions of VbP, unconjugated AVA04-182 Fc, linker-VbP pro-drugs (6325, 6326 and 6328), and Affimer-linker-VbP pro-drugs (AVA04-182 Fc-6325, −6326 and −6328) were added to wells with and without addition of rhFAPα (R&D Systems) at a final concentration of 25 nM. Each reaction mixture was tested in triplicate and incubated for a further 24 hours at 37° C. Lactate dehydrogenase (LDH; a marker of pyroptosis) released into culture supernatants, was measured using the CytoTox 96 Non-Radioactive Cytotoxicity Assay (Promega) according to the manufacturer's instructions. LDH concentrations were determined by absorbance (A490) measurements in a SpectraMax® M2^e microplate reader (Molecular Devices). Percent LDH release was calculated by subtracting the background release in wells containing DMEM-1%-FBS without cells and expressing the resulting values as percentages of the LDH released by the CytoTox 96 lysis reagent.
Background: LDH in the medium is a marker of cell lysis.

A short description of series [4]: Acute toxicity study in Sprague Dawley rats. It is filed as in vivo, rat. Conditions: SD rats, subcutaneous. How it is done:
The comparative in vivo safety of a representative linker-VbP pro-drug administered subcutaneously at a dose equivalent to 10-fold the maximum tolerated dose (MTD) of VbP was established in Sprague Dawley (SD) rats, i.e., 10 times the dose of VbP that […] of the SD rats.
Prior to administration, MAL-activated 6323 (PEGs-linker-VbP pro-drug) was conjugated to L-cysteine in order to inactivate the MAL moiety. L-cysteine (5 mg; Sigma) was dissolved in 1 mL of MAL-activated 6323 (4.8 mM in 50 mM MES, 150 mM NaCl, pH 6) to achieve an approximate stoichiometry of 10:1 L-cysteine:6323. The resulting solution was incubated at room temperature for 2-3 hours, after which time the reaction was confirmed to have reached completion by LC-MS analysis. The resulting Cys-modified 6323 was purified by preparative RP-HPLC using a Supelco Discovery C18 column with a 2:98 acetonitrile:water (0.1% TFA) gradient over 10 minutes, and was subsequently lyophilized.
Six (6) male SD rats (Charles River) were injected subcutaneously with 1.47 mg/kg Cys-modified 6323 (equivalent to 0.25 mg VbP/kg) in sterile PBS. […] In this study, the MTD for VbP was considered to be 0.025 mg VbP/kg. At 24 hours, 5 of the 6 animals administered Cys-modified 6323 at a dose equivalent to 10-times the VbP MTD survived, indicating a safety margin for the VbP pro-drug relative VbP.

Series [5] deals with T1, human PD-L1 Fc (R&D Systems) chimeric protein (human, UniProt Q9NZQ7 19-239).
T1 construct: Bought reagent; also called human PD-L1 Fe; not shown: Fc part of the bought R&D Systems chimera
Nature of the series: binding ELISA on plate-coated human PD-L1 Fc, detection with biotinylated anti-cystatin A and streptavidin-HRP; the table gives no unit, nM is the x axis of the curve.

T1 sequence (Q9NZQ7 19-239, change not shown): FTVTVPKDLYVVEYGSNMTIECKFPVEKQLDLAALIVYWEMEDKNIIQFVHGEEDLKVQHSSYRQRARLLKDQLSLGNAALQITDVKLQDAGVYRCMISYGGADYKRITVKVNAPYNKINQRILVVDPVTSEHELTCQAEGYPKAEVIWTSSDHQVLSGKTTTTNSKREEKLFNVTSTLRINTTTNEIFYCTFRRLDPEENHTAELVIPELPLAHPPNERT
Sequence of mouse PD-L1 Fc (R&D Systems) (mouse) (Q9EP73 19-238): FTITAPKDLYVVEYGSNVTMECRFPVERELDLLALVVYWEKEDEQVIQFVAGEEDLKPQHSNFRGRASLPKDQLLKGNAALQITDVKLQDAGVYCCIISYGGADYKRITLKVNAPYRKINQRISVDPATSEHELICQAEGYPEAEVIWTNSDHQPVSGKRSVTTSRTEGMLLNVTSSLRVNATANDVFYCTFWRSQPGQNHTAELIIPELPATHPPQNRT

Consider Anti muPD-L1 (10F9.G2) (antibody), for which the IC50 (commonly the concentration needed to halve the response being measured) in series [1] came out at 0.692 nM.
As to Avelumab: anti-PD-L1 antibody, in series [2], the IFNγ secretion result is “increase”. In addition, in series [2] (data not shown), the IL-2 secretion entry is “increase”.
As for `CC(C)[C@H](N)C(=O)N1CCC[C@H]1B(O)O` [VbP, Val-boroPro], in the series on MV4-11 AML cells, the “Efficacy against MV4-11 AML cells in vivo” value is recorded as “demonstrates efficacy”. For the same molecule, in series [3], the “Escape of tumour growth at Day 13” value is “none of the mice showed escape of tumour growth”. Also, the Induction of pyroptosis entry in the series on AML cell lines is listed as “induces pyroptosis”. Besides, the “LDH release in the presence of rhFAPα” value in the series on J774A.1 cells (25 nM rhFAPα) is “significant LDH release”. In addition, the “LDH release in the absence of rhFAPα” value in the series on J774A.1 cells (no rhFAPα) was “significant LDH release”. Also, the MTD in series [4] came to 0.025 mg VbP/kg.

B1: AVA04-251 BH cys-800 (designed binder)
chain: MIPRGLSEAKPATPEIQEIVDKVKPQLEEKTNETYGKLEAVQYKTQVLAREGRQDWVLSTNYYIKVRAGDNKYMHLKVFNGPWVPFPHQQLADRVLTGYQVDKNKDDELTGFAEAAAKEAAAKEAAAKEAAAKEAAAKEAAAKMIPRGLSEAKPATPEIQEIVDKVKPQLEEKTNETYGKLEAVQYKTQVLAREGRQDWVLSTNYYIKVRAGDNKYMHLKVFNGPWVPFPHQQLADRVLTGYQVDKNKDDELTGFLQAAAHHHHHHC
modifications: IRDye 800CW conjugated with maleimide chemistry (to the single Cys residue)
notes: Dye conjugate of m3; also called conjugated Affimer
With B1, in series [5], the EC50 (commonly the concentration giving half of the maximal effect) was 0.0904 nM.

B2: AVA04-251 BH cys (designed binder)
chain: B1 chain
notes: Produced in E. coli BL21; also called parental molecule
In series [5], B2 yielded an EC50 of 0.0355 nM.

(Values after US20210353652A1, “TUMOR MICROENVIRONMENT-ACTIVATED DRUG-BINDER CONJUGATES, AND USES RELATED THERETO” (Trustees of Tufts College, priority 2018, published 2021).)
